# Data from patent publication US20130253056A1, “Continuous Administration of Levodopa and/or Dopa Decarboxylase Inhibitors and Compositions for Same” (NEURODERM, LTD., priority 2009, published 2013).
# Values joined by “and” are separate entries in the source; they are usually repeats but may differ in a detail not shown here. Identical values can stand only once. Counter-ions that a name gives are not always drawn. Like-named read-outs stand apart in the source and are kept apart here.
# Legend:
# [1] = Solubility in PBS, flask method; format: physicochemical; settings: for solubility: phosphate buffered saline (PBS), aqueous buffer, thermodynamic from solid, read-out: Solubility of LDEs in PBS
# Procedure: The “flask method” was used to determine the solubility of the test material in phosphate buffered saline (PBS) according to the OECD Guidelines for the Testing of Chemicals. Briefly, the test material was dissolved in PBS at a temperature slightly above the test temperature. When saturation is achieved, the solution is cooled to the test temperature and the mass concentration of the LD alkyl ester in the solution is determined quantitatively by measuring the absorbance of the solution at 280 nm and comparing the readings to a calibration curve of the relevant alkyl ester dissolved in PBS.
# [2] = Transdermal delivery through pig skin ex vivo, Franz cell delivery system; format: in vitro ADME, porcine; settings: gel formulations, receiver samples 0, 16, 19 and 22 hours
# Procedure: Gel formulations containing CDPE were prepared. Samples were collected from the receiver cell at time 0, 16, 19 and 22 hours after formulation application on to the skin. The amount of CD compounds in the receiver cell fluid was determined by a spectrophotometer at […].
# [3] = biological target: T1, dopa-decarboxylases (DDC) (Sus scrofa, UniProt P80041); assay: Inhibition of dopa-decarboxylase activity in vitro; format: biochemical; settings: porcine liver homogenate
# T1 construct: DDC enzymes were obtained from porcine liver homogenate; from tissue; host or cells: porcine liver homogenate
# T1 sequence (P80041 1-486): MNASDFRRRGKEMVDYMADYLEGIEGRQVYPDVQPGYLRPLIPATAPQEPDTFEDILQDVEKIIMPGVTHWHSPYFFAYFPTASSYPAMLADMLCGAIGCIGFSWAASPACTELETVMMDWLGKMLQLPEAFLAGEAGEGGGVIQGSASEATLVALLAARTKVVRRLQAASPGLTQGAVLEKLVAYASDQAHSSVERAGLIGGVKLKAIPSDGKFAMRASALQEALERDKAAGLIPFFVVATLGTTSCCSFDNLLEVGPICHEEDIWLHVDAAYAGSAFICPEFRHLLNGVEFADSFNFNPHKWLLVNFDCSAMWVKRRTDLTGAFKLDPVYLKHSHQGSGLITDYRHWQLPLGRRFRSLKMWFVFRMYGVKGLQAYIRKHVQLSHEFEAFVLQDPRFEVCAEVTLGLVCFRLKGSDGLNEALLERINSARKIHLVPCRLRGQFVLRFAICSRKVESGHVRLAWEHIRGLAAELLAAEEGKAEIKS
# Procedure: DDC enzymes were obtained from porcine liver homogenate and their activity was measured by comparing LD concentrations with and without carbidopa propyl ester (CDPE). Liver homogenate preparation was based on the method described by Umezawa et al; (J. Antib. 1975, 28(12):947-52).
# All samples were separated on high pressure liquid chromatography columns and the identity and concentration of L-DOPA and dopamine were determined by HP UV-HPLC analysis at […].
# [4] = Oral levodopa arginine and carbidopa arginine salts, PK in pigs; format: in vivo, female landrace×large white swine; settings: for absorption as compared to LD/CD (Sinemet): oral 255/45 mg LDs/CDs (corresponding to 100/25 LD/CD); for PK of plasma LD and CD: oral enteric coated LDs/CDs
# Procedure: Pigs were orally administered with 255/45 mg LD-arginine salt (LDs)/CD-arginine salt (CDs) to 30-35 kg pigs in gelatin coated or non-coated capsules (corresponding to 100/25 LD/CD). Plasma levels of LD and CD were measured by HPLC-ECD.
# [5] = Pig skin penetration of LDE by patch; format: in vivo, pigs; settings: for LD P/WB (%) / LD blood cells (C) / Whole blood (WB) LD / Ratio C/P / Plasma (P) LD: 16 h after patch application; for LD blood cells (C) / Whole blood (WB) LD / Plasma (P) LD / LD concentration in the blood cell fraction higher as compared to LDbzE: pigs; for Ratio C/P: blood cell fraction LD / plasma LD; for LD concentration in the blood cell fraction higher as compared to LDbzE: patch
# Procedure: Patch removal occurred at 24 h. […] Both whole blood and plasma were subjected to LD and 3-OMD analysis. […] LD formed in the RBC stay within the RBCs, and is further metabolized to 3-OMD, which is reallocated from the RBCs into the plasma.
# [6] = Intradermal delivery of LDE in pigs; format: in vivo
# Procedure: LDEs were infused intradermally for 4 hours. […] Both whole blood and plasma samples were subjected to LD and LDE analysis.
# mice = assay: Skin sensitization, LLNA (local lymph node assay); settings: for Median SI / SI / Ind. SI: LLNA mice; for Ind. SI: individual animals
# Procedure: Sensitization was tested in mice using a LLNA (local lymph node assay) model for the detection of skin sensitization. […] In another LLNA study, LD Propyl and Benzyl Esters were tested in vehicle containing penetration enhancers.
# [7] = Effect of pH on stability and hydrolysis of LDipE; format: physicochemical
# Procedure: FIG. 19 indicates the effect of pH on stability and hydrolysis of LDipE after 10 days at 4 and 40° C.
# [8] = for LD in Blood (ng/ml): LDiPE / LD in Blood (ng/ml): LD-d3 / Recovery from Blood (%): LD-d3: whole blood
# Procedure: LDEs [isopropyl ester (LDipE), propyl ester (LDpE), ethyl ester (LDeE)] and LD-d3, were spiked into whole blood, incubated for 15 or 60 minutes at 37° C., and the plasma or whole blood concentration of LD, LD-d3 and LDipE were quantified using HPLC analysis as shown in Table 6 and FIG. 13.
# [9] = Continuous subcutaneous administration of LD benzyl ester-HCl in pigs; format: in vivo; settings: 15% aqueous solution pH 4.7, continuous SC 2 ml/24 h, oral carbidopa q8 h
# Procedure: An aqueous solution of 15% LD benzyl ester-HCl, pH 4.7, was continuously administered subcutaneously via an insulin patch pump, 2 ml/24 h. Carbidopa was administered orally q8 h, starting 1 h prior to pump application.
# [10] = cited from earlier work
# [11] = Continuous subcutaneous benserazide, levodopa PK in pigs; format: in vivo, female landrace×large white swine; settings: continuous subcutaneous benserazide with oral L-dopa/Carbidopa
# Procedure: (§1) Plasma levels of L-dopa were measured by HPLC-ECD.
# [12] = Continuous subcutaneous carbidopa with or without entacapone, levodopa PK in pigs; format: in vivo, female landrace×large white swine; settings: continuous SC 2% carbidopa with 2.5% entacapone, oral LD/CD
# Procedure: as §1
# [13] = T0 after spiking into whole blood
# [14] = T15′ after spiking into whole blood
smiles,measurement,setting,value
"CCCCOC(=O)[C@@H](N)Cc1ccc(O)c(O)c1 [Butyl, levodopa butyl ester]",Solubility of LDEs in PBS,[1],8.85 mg/mL
"CCCOC(=O)C(C)(Cc1ccc(O)c(O)c1)NN (stereo not shown) [CDPE, carbidopa propyl ester]",transdermal delivery through full thickness porcine skin,[2],penetrates the skin in an enhancer-dose dependent manner
same,inhibition of decarboxylation of L-dopa to dopamine,[3],"inhibits the decarboxylation of L-dopa to dopamine, in a similar manner to carbidopa and benserazide"
CC(Cc1ccc(O)c(O)c1)(NN)C(=O)O.N=C(N)NCCCC(N)C(=O)O (stereo not shown) [CDs],absorption as compared to LD/CD (Sinemet),[4],absorbed more rapidly and efficiently
same,PK of plasma LD and CD,[4],extended the PK of plasma LD and CD
"N[C@@H](Cc1ccc(O)c(O)c1)C(=O)OCc1ccccc1 [LD Benzyl Ester, levodopa benzyl ester]",LD P/WB (%),[5],39.1%
same,LD P/WB (%),[5]; listed as LDbzE,~40%
same,LD blood cells (C),[5],2506 ng/mL
same,Whole blood (WB) LD,[5],4115 ng/mL
same,hydrolysis to LD,[6]; intradermal infusion,hydrolyzed to LD faster than LD isopropyl ester
"CCOC(=O)[C@@H](N)Cc1ccc(O)c(O)c1 [LD Ethyl Ester, levodopa ethyl ester]",LD P/WB (%),[5]; listed as Ethyl,13.4%
same,LD P/WB (%),[5]; listed as ethyl,13%
same,Ratio C/P,[5],6.5
same,LD blood cells (C),[5],6418 ng/mL
same,Plasma (P) LD,[5],989 ng/mL
same,Whole blood (WB) LD,[5],7407 ng/mL
same,LD concentration in the blood cell fraction higher as compared to LDbzE,[5],2.5 ×
same,Median SI,mice; 1M (24%) in DMF,10.8
same,SI,mice; 1M (24%) in DMF,10.7
same,Ind. SI,mice; 1M (24%) in DMF,13.31 and 8.22 and 14.45 and 6.65
"CC(C)OC(=O)[C@@H](N)Cc1ccc(O)c(O)c1 [LD Isopropyl Ester, levodopa isopropyl ester]",recovery at 15 min,in vitro,0%
same,"recovery at 15 min, 400 ng/ml",in vitro,0%
same,levels of LDipE in the RBC fraction,[6]; during 4 hours intradermal infusion,Significant levels of LDipE were found in the RBC fraction
same,solubility,[1],17.3 mg/mL
same,pH of the most stable formulation tested,[7]; after 10 days at 4° C.,5.1
same,pH of the most stable formulations tested,"[7]; after 10 days at 40° C., listed as LDipE",3.7 and 4.8
same,Recovery from Blood (%): LDiPE,[8]; 0 min,45%
same,LD in Plasma (ng/ml): LDiPE,[8]; T0 after spiking of LDipE into whole blood,0 ng/mL
same,LD in Plasma (ng/ml): LDiPE,[8]; T15′ after spiking of LDipE into whole blood,0 ng/mL
same,LD in Blood (ng/ml): LDiPE,[8]; T0 after spiking of LDipE,180 ng/mL
same,LD in Blood (ng/ml): LDiPE,"[8]; T15′ after spiking of LDipE, 37° C.",0 ng/mL
same,Median SI,mice; 1M (24%) in DMF,3.5
same,SI,mice; 1M (24%) in DMF,4.2
same,Ind. SI,mice; 1M (24%) in DMF,3.63 and 7.11 and 2.69 and 3.33
"CCCOC(=O)[C@@H](N)Cc1ccc(O)c(O)c1 [LD Propyl Ester, levodopa propyl ester]",LD P/WB (%),[5]; listed as Propyl,24.7%
same,LD P/WB (%),[5]; listed as propyl,25%
same,Ratio C/P,[5],3.0
same,Ratio C/P,[5]; listed as LDpE,3
same,LD blood cells (C),[5],4820 ng/mL
same,Plasma (P) LD,[5],1584 ng/mL
same,Whole blood (WB) LD,[5],6404 ng/mL
same,LD concentration in the blood cell fraction higher as compared to LDbzE,[5],1.9 ×
same,Solubility of LDEs in PBS,[1],11.238 mg/mL
same,Median SI,mice; 1M (24%) in DMF,3.5
same,SI,mice; 1M (24%) in DMF,3.6
same,Ind. SI,mice; 1M (24%) in DMF,2.32 and 4.55 and 5.12 and 2.44
same,Ind. SI,mice; 15% in Vehicle (penetration enhancers),36.42 and 7.70 and 38.60 and 3.53 and 31.68
same,Median SI,mice; 15% in Vehicle,31.7
same,SI,mice; 15% in Vehicle,23.6
same,change of SI when applied using the transdermal formulation,mice; compared with DMF,significantly increased
NC(Cc1ccc(O)c(O)c1)C(=O)OCc1ccccc1 (stereo not shown) [LD benzyl ester-HCl],plasma concentrations of LD,[9],fluctuations of LD concentrations in the plasma coincided with oral carbidopa administration
[2H]c1c([2H])c(C[C@H](N)C(=O)O)c([2H])c(O)c1O [LD-d3],LD in Plasma (ng/ml): LD-d3,[8]; [13],533 ng/mL
same,Recovery from Plasma (%): LD-d3,[8]; [13],67%
same,LD in Plasma (ng/ml): LD-d3,[8]; [14],573 ng/mL
same,Recovery from Plasma (%): LD-d3,[8]; [14],70% and 72%
same,LD in Blood (ng/ml): LD-d3,[8]; T0 after spiking,289 ng/mL
same,Recovery from Blood (%): LD-d3,[8]; T0 after spiking,72%
same,Recovery from Blood (%): LD-d3,[8]; T15′ after spiking,72%
same,LD in Blood (ng/ml): LD-d3,"[8]; T15′ after spiking, 37° C.",288 ng/mL
N=C(N)NCCCC(N)C(=O)O.NC(Cc1ccc(O)c(O)c1)C(=O)O (stereo not shown) [LDs],absorption as compared to LD/CD (Sinemet),[4],absorbed more rapidly and efficiently
same,PK of plasma LD and CD,[4],extended the PK of plasma LD and CD
"N[C@@H](Cc1ccc(O)c(O)c1)C(=O)O [Levodopa, L-3,4-dihydroxyphenylalanine]","solubility in alcohol, chloroform or ether",[10],practically insoluble
same,solubility in water,[10],only slightly soluble in water
"CCCCCCCCOC(=O)[C@@H](N)Cc1ccc(O)c(O)c1 [Octyl, levodopa octyl ester]",solubility,[1],0.031 mg/mL
"Nc1ccc(N)cc1 [Positive Control, p-Phenylendiamine, reference compound]",Median SI,mice; 1%,9.7
same,SI,mice; 1%,10.1
same,Ind. SI,mice; 1%,8.82 and 9.33 and 12.15 and 10.00
NC(CO)C(=O)NNCc1ccc(O)c(O)c1O (stereo not shown) [benserazide],pharmacokinetic profile of LD,[11],extended the pharmacokinetic profile of LD
CCN(CC)C(=O)/C(C#N)=C/c1cc(O)c(O)c([N+](=O)[O-])c1 [entacapone],levels of 3-OMD,[12],effectively reduced
same,pharmacokinetics of levodopa,[12],did not further extend
